We go through 14 molecules from patent US20260097133A1, “EPIGENETIC EDITING TOOL FOR TARGETING HEPATITIS B VIRUS GENE” (priority 2023, published 2026).

The subject of series [1] is type D HBV core antigen (HBcAg) reporter cell line. Kind of series: sgRNA lentiviral library screening, HBcAg reporter cell line (NGS reads in GFP-negative cells). The following applies: sgRNA in GFP-negative cell population, day 14 after transfection of EPIREG. In kind it is cell-based. From the text:
(§1) In this example, the type D HBV X protein (HBx), core antigen (HBcAg), and surface antigen (HBsAg) reporter cell lines were used for library screening. First, a sgRNA cell library of type D HBV gene was constructed using a reporter cell line according to the method described in example 1. The sgRNA library was packaged into lentivirus to obtain a sgRNA lentiviral library (carrying red fluorescence), the reporter cell line was infected with the lentiviral library, and the red fluorescence was sorted to obtain the sgRNA cell library. Each cell in this sorted cell library integrated a single sgRNA in the library while the cell itself carried a reporter sequence (carrying green fluorescence). The EPIREG tool described in example 2 (the amino acid sequence of the tool was SEQ ID NO: 1194) (carrying blue fluorescence) was transfected and delivered into a cell library carrying both sgRNA and reporter sequences. Red/green/blue fluorescent triple-positive cells were sorted using a flow cytometer and cultured long-term. The EPIREG transfected into the cells could work together with the sgRNA to silence GFP in the reporter. On the day 14 after transfection, the GFP-negative cell population in the cell library was sorted, the genomic DNA of the negative cell population was extracted for NGS sequencing. The sgRNAs with higher sequencing reads in the negative cell population were compared using the untreated cell library as a control reference, so as to obtain the candidate sgRNAs that could play an editing role corresponding to each reporter, respectively (the schematic diagram of this screening scheme is shown in FIG. 6, and the analysis method is referenced to the literature DOI: 10.1186/s13059-014-0554-4). The functionally validated sgRNAs for each reporter cell line are summarized in the following table (arranged by the starting position of the target sequence of each sgRNA).

Series [2] relates to type D HBV surface antigen (HBsAg) reporter cell line. Kind of series: sgRNA lentiviral library screening, HBsAg reporter cell line (NGS reads in GFP-negative cells). Type of series: cell-based. The following applies: sgRNA in GFP-negative cell population, day 14 after transfection of EPIREG.
Description: as §1

For series [3], the system named is type D HBV X protein (HBx) reporter cell line. The experiment in a line: sgRNA lentiviral library screening, HBx reporter cell line (NGS reads in GFP-negative cells). Type of series: cell-based. The following applies: sgRNA in GFP-negative cell population, day 14 after transfection of EPIREG.
Description: as §1

The subject of series [4] is type D hepatitis B virus (GenBank: U95551). The experiment in a line: Knockdown of HBV markers in HBV-infected primary hepatocytes (PHH), Example 2. Type of series: cell-based. Particulars: for level of viral antigen protein (HBsAg, HBeAg/HBcAg) after end of treatment: sgRNA: single 4 h treatment, RG7834 stopped on day 13. The source says: A primary hepatocyte (PHH) cell line infected with type D hepatitis B virus (GenBank: U95551) was used in this example. […] Therefore, these four sgRNAs were used to formulate the pharmaceutical composition provided in the present application and perform epigenetic editing in primary hepatocytes to validate their inhibitory effect on HBV gene expression.
Two days after primary hepatocytes were infected with HBV, lipid nanoparticles (LNPs) (LNP preparation reference: https://doi.org/10.1038/s41586-021-03534-y) were used to deliver a composition containing mRNA encoding EPIREG (SEQ ID NO: 1191) and each sgRNA (BSG29, BSG31, BSG34, BSG35) into primary hepatocytes (administration dose was 2.5 μg/ml, the mass ratio of EPIREG to sgRNA was 1:1). The culture supernatant was collected every two days after administration to detect the expression levels of HBV surface antigen (HBsAg) and core antigen (HBcAg) secreted by the cells. Cell samples were collected until 14 days after administration, DNA and RNA were extracted from the cells, and the levels of HBV mRNA and changes in the cccDNA of the HBV gene were detected. The two groups of positive controls used Myrcludex B (WuXi AppTec, C9023GE070-1/PE0723) and RG7834 (WuXi AppTec, ET25747-14-P1), respectively. Myrcludex B could inhibit HBV infection of hepatocytes, and RG7834 could inhibit the synthesis of viral proteins. RG7834 was stopped on the day 13 of the experiment to observe the rebound of viral antigen proteins. (Specific detection methods were performed according to the following kit instructions: HBsAg ELISA kit, Antu-CL 0310; HBeAg ELISA kit, Antu-CL 0312; RNeasy 96 Kit (12), QIAGEN #74182)

Series [5] has the same test system. Kind of series: Candidate sgRNA effect validation in HBV-infected primary hepatocytes (PHH), Example 4. In kind it is cell-based. The following applies: 14 days after infection. From the text: A primary hepatocyte (PHH) cell line (WuXi AppTec, M00995-P) infected with type D hepatitis B virus (GenBank: U95551) was used in this validation experiment. Based on the screening results of the three libraries in Example 3 and combined with factors such as conservation, the 20 sgRNAs shown in the table below were selected to prepare the pharmaceutical composition provided in the present application and perform epigenetic editing in the primary hepatocytes to validate the inhibitory effect of the screened candidate sgRNAs on HBV gene expression.
Two days after primary hepatocytes were infected with HBV, lipid nanoparticles (LNPs) (LNP preparation reference: https://doi.org/10.1038/s41586-021-03534-y) were used to deliver the composition comprising the mRNA encoding EPIREG (sequence: SEQ ID NO: 1191) and each of the above-mentioned sgRNAs into primary hepatocytes (administration dose was 2.5 μg/ml, the mass ratio of EPIREG to sgRNA was 1:1). […] The supernatant of the culture medium was collected every two days after administration in each group, and the expression levels of HBV surface antigen (HBsAg), core antigen (HBcAg/HBeAg) and HBV DNA secreted by the cells were detected until 14 days after infection. Cell samples were collected, DNA and RNA in the cells were extracted, and the level of HBV mRNA was detected. […]

In series [6] the test system is HBx reporter cell line of type B HBV. Kind of series: sgRNA functional screening in HBx reporter cell line (293 FT, P2A-EGFP), type B HBV. In kind it is cell-based, type B HBV (serotype adw). The following applies: for editing effects in the HBx reporter cell line: type B HBV, different time points after transfection of EPIREG + sgRNA. The source says:
(§2) 293 FT was used to construct a reporter cell line for type B, type C and type D HBV surface antigen (HBsAg), core antigen (HBcAg), X protein (HBx) and polymerase (Pol), and the schematic diagram is shown in FIG. 1A. The genomic sequence containing the CpG island and regulatory elements before the protein transcription start site was retained, and the gene sequences of the self-cleaving peptide P2A and EGFP were fused after the 38th amino acid of the HBV surface antigen (HBsAg), the 129th amino acid of the core antigen (HBcAg), the 77th amino acid of the X protein (HBx), and the 177th amino acid of the polymerase (Pol), respectively. The reporter gene was integrated into the 293 FT genome using the PiggyBac transposon system, and a stably transfected cell line was constructed. The intensity of fluorescence was used to reflect the expression level of the protein, thereby quickly performing functional validation and preliminary screening of sgRNAs near the CpG island.
The screening scheme for sgRNA functional validation using the above-mentioned reporter cell line was designed as follows (FIG. 1B): after the reporter cells were plated, the composition EPIREG described in the present application (the domain of the composition was DNMT3A-hDNMT3L-xten80-ZIM3-xten80-dCas9, with an amino acid sequence as set forth in SEQ ID NO: 1194, and a nucleic acid sequence as set forth in SEQ ID NO: 1192 (CDS sequence) and 1193 (plasmid sequence)) containing different sgRNAs was delivered into the cells by transfection, and the two carried red fluorescence and blue fluorescence, respectively. Flow cytometry was used to sort red fluorescent and blue fluorescent double-positive cell populations, which were cultured for a long time. Flow cytometric analysis was performed every week to detect changes in the fluorescence intensity of the reporter cells, which could reflect changes in protein expression levels after epigenetic editing.

Series [7] has as its system HBx reporter cell line of type D HBV. Kind of series: sgRNA functional screening in HBx reporter cell line (293 FT, P2A-EGFP), type D HBV. Type of series: cell-based, type D HBV (serotype ayw).
Description: as §2, with “island. […]” for “island.”

Series [8] deals with HBx reporter cell line of type C HBV. The experiment in a line: sgRNA functional screening in HBx reporter cell line (293 FT, P2A-EGFP), type C HBV. Type of series: cell-based, type C HBV (serotype adr).
Description: as §2, with “island. […]” for “island.”

[9] abbreviates: LNP with EPIREG mRNA + sgRNA 1:1, 2.5 μg/ml, 2-10 days after administration.

Regarding “641 (guide GATCGGCAGAGGAGCCGAAA; listed as DNA, chemistry not fully specified) [compound 641]”, the “Log2 FC” value is given as 5.5293 in series [1], 1.58 in series [2] and 7.351 in series [3].
For “658 (guide GCAAATATACATCGTATCCA; listed as DNA, chemistry not fully specified) [compound 658]”, the “Log2 FC” value amounted to 2.2171 in series [1], 1.8084 in series [2] and 4.7952 in series [3].
The matching figures for “669 (guide GCAGATGAGAAGGCACAGAC; listed as DNA, chemistry not fully specified) [compound 669]”: 3.0945, 1.1259 and 4.1676.
In the case of “792 (guide GGTCTGGAGCAAACATTATC; listed as DNA, chemistry not fully specified) [compound 792]”, the “Log2 FC” value was 2.103 in series [1], 1.5074 in series [2] and 5.6925 in series [3].
Consider “810 (guide GTAAAGAGAGGTGCGCCCCG; listed as DNA, chemistry not fully specified) [compound 810]”, for which the “Log2 FC” value in series [1] worked out at 2.5258; in series [2], 1.7059; in series [3], 5.1825.
On to “825 (guide GTCCCAAGCGACCCCGAGAA; listed as DNA, chemistry not fully specified) [compound 825]”, for which the figures for the “Log2 FC” value in series [1], in series [2] and in series [3] were 3.3064, 1.0352 and 5.2457, respectively.
The matching figures for “834 (guide GTCGGAACGGCAGACGGAGA; listed as DNA, chemistry not fully specified) [compound 834]”: 2.7177, 1.2666 and 4.7704.
The matching figures for “973 (guide TCGGAACGGCAGACGGAGAA; listed as DNA, chemistry not fully specified) [compound 973]”: 3.9552, 1.056 and 6.3619.
The matching figures for “985 (guide TCTGCCGTTCCGACCGACCA; listed as DNA, chemistry not fully specified) [compound 985]”: 3.1824, 1.8695 and 6.0276.
Consider `COCCCOc1cc2c(cc1OC)-c1cc(=O)c(C(=O)O)cn1[C@H](C(C)C)C2` [RG7834, reference compound], for which the “level of viral antigen protein (HBsAg, HBeAg/HBcAg) after end of treatment” value in series [4] is reported as “clear rebound (increasing) trend”.
Consider AGGAGTTCCGCAGTATGGAT [BSG35], for which, in series [5], the “inhibition level, comparison among the 20 sgRNAs” value is “highest inhibition level”. For the same molecule, the “inhibitory effects on HBx expression” value in series [6] (type B HBV HBx reporter cell line), in series [7] and in series [8] was “nearly the best inhibitory effects” each time. Also, the “editing effects in the HBx reporter cell line” value in series [6] is listed as “extremely high editing effects”. Moreover, the “inhibitory effect compared with Myrcludex B and RG7834” value in series [4] was “close to that of the two reference inhibitors”. Besides, the “inhibitory effect on HBsAg and HBeAg/HBcAg, comparison among sgRNAs” value in series [4] (2.5 μg/ml) is listed as “best effect”. For the same molecule, in series [4] (2.5 μg/ml, 2-10 days after administration), the “expression levels of HBsAg and HBeAg/HBcAg in the supernatant (change)” value is “different degrees of decrease”. Also, the “reduction of expression level of HBeAg/HBcAg in the supernatant” value in series [4] (setting [9]) is reported as “about 80%”. In addition, the “reduction of expression level of HBsAg in the supernatant” value in series [4] (setting [9]) is “about 80%”. Further, the “time at which expression levels of HBsAg and HBeAg/HBcAg became stable” value in series [4] (after single administration) is “basically stable on the day 4 after administration”. For the same molecule, in series [4], the “level of viral antigen protein (HBsAg, HBeAg/HBcAg) after end of treatment” value is given as “remained stable at a low level”.
For the molecule “BSG30: sgRNA tested in the HBx reporter cell line of type B HBV (guide CCTGCTGCGAGCAAAACAAG; listed as DNA, chemistry not given here)”, the “editing effects in the HBx reporter cell line” value in series [6] was “extremely high editing effects”.
On the same count and under the same terms, the same measure for “BSG43: sgRNA tested in the HBx reporter cell line of type B HBV (guide TCCTCTACCGATCCATACTG; listed as DNA, chemistry not given here)”: “extremely high editing effects”; for “BSG50: sgRNA tested in the HBx reporter cell line of type B HBV (guide GATCGGTAGAGGAGACACAA; listed as DNA, chemistry not given here)”: “extremely high editing effects”.
